Measured values published in patent US20230227566A1, “AMHRII-BINDING COMPOUNDS FOR PREVENTING OR TREATING LUNG CANCERS” (GAMAMABS PHARMA, priority 2017, published 2023).

Columns and labels:
[1] = tolerability (body weight, clinical observations) in study XTS-1526
Method: Adverse effect of the different treatments was determined as: • Relative Body Weight (RBW) will be calculated for each measurement by dividing the body weight by the body weight at the start of treatment. • Individual Body weight loss percent (% BWL)=100−(BWx/BW0×100), where BWx is the BW at any day during the treatment and BW0 is the BW on the 1st day of treatment.
Mice were observed every day for physical appearance, behavior and clinical changes.
Animals were sacrificed based on the following criteria: • Body weight loss (BWL)≥20% compared to the 1st day of treatment for 48 consecutive hours (3 measurements). • General alteration of behaviour or clinical signs. • Tumor volume ≥2000 mm^3.
Mean Body weight loss percent (% BWL)=100−(mean BWx/mean BW0x 100), where BWx is the mean BW at any day during the treatment and BW0 is the mean BW on the 1st day of treatment.

[2] = tested on: SC131 tumor model; assay: response of SC131 tumor model to standard-of-care agents; assay type: in vivo, mouse; conditions: data obtained on swiss nude mice
Source text: Human tumor samples of various histological origins were obtained with informed consent from patients treated at cancer centers and established as transplantable xenografts in immunodeficient mice. The grafted samples are residual material from primary tumors or metastases obtained before or after treatment. These patient-derived xenograft (PDX) models have been established without prior in vitro culture and have been studied for histology, cytogenetics, genetic and other biological markers, and for their response to standard-of-care (SOC) therapies.
SC131 is low responder to docetaxel and to the combination cisplatin/gemcitabine, and no responder to the other agents tested (data obtained on swiss nude mice).

[3] = tested on: SC131 patient-derived non-small-cell lung xenograft; assay: antitumor efficacy study XTS-1526 in SC131 patient-derived xenograft; conditions: for CR (complete regression), number of mice / TFS (Tumor Free Survivor), number of mice / TS (Tumor Stabilization), number of mice / PR (partial regression), number of mice: 9 mice per group; for antitumor efficacy compared with control group 1 (in words): Mann-Whitney test vs vehicle; for TGDI (Tumor Growth Delay Index): TGD treated/TGD control, same regimens; for TS (Tumor Stabilization), number of mice: constant tumor size during at least 3 consecutive measurements; for Best T/C%: day of best T/C D16 (G6: D11); for T/C % at day 16: mean tumor volume treated/control x100, day 16; for median TGD x 5: time to reach 5x D0 tumor volume, GM102 20 mg/kg IV 2qwk, docetaxel 20 mg/kg slow IV D0, cisplatin 5 + gemcitabine 100 mg/kg IP qwk; for PR (partial regression), number of mice: tumor size lower than initial during at least 3 consecutive measurements;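 as to all read-outs here: subcutaneous tumor fragments grafted in mice, tumor volume from caliper diameters (length × width²/2) taken three times weekly during treatment, each treated group compared against vehicle controls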
Source text: Fifty-four (54) mice with a subcutaneously growing SC131 tumor (P22.1.3/0) between 62.5 and 220.5 mm^3 were allocated to treatment when the mean and median tumor volume reached 130.76 and 126.00 mm^3 respectively.
Tumors of the same passage were transplanted subcutaneously onto 3-24 mice (donor mice, passage (n−1)). When these tumors reached 700 to 2000 mm^3, donor mice were sacrificed by cervical dislocation, tumors were aseptically excised and dissected. After removing necrotic areas, tumors were cut into fragments measuring approximately 20 mm^3 and transferred in culture medium before grafting.
Eighty-nine (89) mice were anaesthetized with 100 mg/kg ketamine hydrochloride (batch 5D92—exp: 03-2017, Virbac) and 10 mg/kg xylazine (batch KP0AX9X, Bayer), and then skin was aseptized with a chlorhexidine solution, incised at the level of the interscapular region, and a 20 mm^3 tumor fragment was placed in the subcutaneous tissue. Skin was closed with clips.
Treatments were randomly attributed to boxes housing up to 5 mice and were initiated 18 days post implantation of the tumor (60% inclusion rate with staggered inclusion). The study was staggered-included with 5 mice included per group first, then 4 mice included per group 2 days later. The study was terminated following 31 days after the start of treatment.
For the additional groups 7 and 8, tumor size was higher and more heterogeneous. Animals were included 32 days post implantation.
Tumor volume was evaluated by measuring tumor diameters, with a caliper, three times a week during the treatment period. The formula TV (mm^3)=[length (mm)×width (mm)^2]/2 was used, where the length and the width are the longest and the shortest diameters of the tumor, respectively.
For the groups 1 to 6, each group initially included 9 mice. For the groups 7 and 8, each group initially included 8 mice.
Individual tumor growth delays (TGD) was calculated as the time in days required for individual tumors to reach 3- to 5-fold the initial tumor volume.
The tumor growth delay index (TGDI) was calculated as the median growth delay in the treated group divided by the median growth delay in the control group.
The percentage ratio between the mean tumor volume of a treated group (T) and the mean tumor volume of the control group (C) was calculated.
Statistical analysis was done for each measurement by Mann-Whitney non parametric comparison test. Each treated group was compared with control group.
Tumor Stabilization (TS) was defined as the number of mice presenting a constant tumor size during at least 3 consecutive measurements.
Partial tumor Regression (PR) was defined as the number of mice presenting a tumor size lower than initial tumor size during at least 3 consecutive measurements.

[4] = target: T1, human Anti-Mullerian Hormone type II Receptor (AMHRII) (human, UniProt Q16671 18-573); assay: immunohistochemistry (immunoperoxidase, biotinylated antibody) on AMHR2-transfected COV434 cells
T1 construct: also called AMHR2; MISRII
T1 sequence: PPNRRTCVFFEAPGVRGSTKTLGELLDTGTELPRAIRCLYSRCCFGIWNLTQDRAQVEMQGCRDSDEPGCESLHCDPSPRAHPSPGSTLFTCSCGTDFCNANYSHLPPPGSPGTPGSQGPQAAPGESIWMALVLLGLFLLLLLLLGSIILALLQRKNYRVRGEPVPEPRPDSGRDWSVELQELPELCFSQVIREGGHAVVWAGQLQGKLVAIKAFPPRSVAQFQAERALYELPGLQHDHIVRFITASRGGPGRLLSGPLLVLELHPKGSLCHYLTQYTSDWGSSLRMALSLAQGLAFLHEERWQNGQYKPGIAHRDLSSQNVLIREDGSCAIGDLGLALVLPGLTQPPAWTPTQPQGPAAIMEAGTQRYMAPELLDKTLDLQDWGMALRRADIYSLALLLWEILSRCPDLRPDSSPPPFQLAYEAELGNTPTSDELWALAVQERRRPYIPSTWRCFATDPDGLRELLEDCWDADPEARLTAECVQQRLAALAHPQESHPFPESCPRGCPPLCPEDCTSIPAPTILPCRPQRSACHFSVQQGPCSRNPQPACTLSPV

[5] = target: T2, AMHRII (Homo sapiens, UniProt Q16671); assay: binding of 3C23K antibody to AMHRII (Kd)
T2 sequence (Q16671 18-573): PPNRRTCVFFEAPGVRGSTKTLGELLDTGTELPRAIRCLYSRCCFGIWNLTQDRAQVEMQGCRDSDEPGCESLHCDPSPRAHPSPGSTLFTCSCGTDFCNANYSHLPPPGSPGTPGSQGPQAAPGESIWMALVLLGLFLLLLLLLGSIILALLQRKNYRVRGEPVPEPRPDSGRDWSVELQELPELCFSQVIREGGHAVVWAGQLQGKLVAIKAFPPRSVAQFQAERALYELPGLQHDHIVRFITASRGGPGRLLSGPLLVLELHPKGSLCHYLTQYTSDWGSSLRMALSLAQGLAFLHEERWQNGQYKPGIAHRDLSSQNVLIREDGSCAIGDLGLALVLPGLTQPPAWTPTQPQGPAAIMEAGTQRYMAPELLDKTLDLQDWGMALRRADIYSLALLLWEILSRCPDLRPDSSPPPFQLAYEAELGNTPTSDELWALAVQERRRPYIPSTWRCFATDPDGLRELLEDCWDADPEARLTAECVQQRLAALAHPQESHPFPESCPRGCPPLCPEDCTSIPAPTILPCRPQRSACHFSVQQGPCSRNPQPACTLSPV

[6] = tested on: LXFE2226 squamous non-small cell lung cancer model tumor xenografts; assay: antitumor efficacy in LXFE2226 tumor xenografts; assay type: in vivo, mouse
Source text: Tumor fragments were obtained from xenografts in serial passage in nude mice. After removal from donor mice, tumors were cut into fragments (3-4 mm edge length) and placed in PBS containing 10% penicillin/streptomycin. Recipient animals were anesthetized by inhalation of isoflurane and received unilateral or bilateral tumor implants subcutaneously in the flank.
LXFE2226 squamous non-small cell lung cancer model tumor xenografts were implanted subcutaneously with one tumor per mouse (NMRI-Foxn1^nu from Charles River). The experiment consisted of two groups of mice from which three of them were euthanized on day 15 for detecting membranous AMHRII expression by flow cytometry. The first group was a vehicle control group and the second group received the investigational antibody GM102, which was administered intraperitoneally (i.p.) twice weekly at a dose level of 20 mg/kg.
Antitumor efficacy was evaluated as minimum T/C value by comparison of group median relative tumor volumes (RTVs) on the days where the optimal efficacy was reached. The experiment was terminated on day 43 after a two-week dosing-free observation period.

[7] = tested on: AMHR2-transfected human tumor cell lines; conditions: cited from earlier work

Molecule: CC(=O)O[C@@]12CO[C@@H]1C[C@H](O)[C@@]1(C)C(=O)[C@H](O)C3=C(C)[C@@H](OC(=O)[C@H](O)[C@@H](NC(=O)OC(C)(C)C)c4ccccc4)C[C@@](O)([C@@H](OC(=O)c4ccccc4)[C@H]21)C3(C)C [Docetaxel]
- mice that had to be sacrificed before the end of the study ([1]; despite DietGel, 9 mice per group (groups 7, 8: 8)): 4
- maximum individual body weight loss ([1]; mouse, in vivo): 23.8%
- maximum mean body weight loss ([1]; mouse, in vivo): 17.0%
- response of SC131 to the agent (in words) [2]: low responder
- CR (complete regression), number of mice [3]: 0
- TFS (Tumor Free Survivor), number of mice [3]: 0
- antitumor efficacy compared with control group 1 (in words) [3]: strong and statistically significant
- TGDI (Tumor Growth Delay Index) [3]: >2.71
- TGDI (Tumor Growth Delay Index) ([3]; listed as docetaxel): > 2.71
- TS (Tumor Stabilization), number of mice [3]: 7
- TS (Tumor Stabilization), number of mice ([3]; listed as docetaxel): 7/9
- Mann-Whitney analysis on tumor volume vs vehicle, day 4 ([3]; day 4): ** (P < 0.01)
- Mann-Whitney analysis on tumor volume vs vehicle, day 7 ([3]; day 7): *** (P < 0.001)
- Mann-Whitney analysis on tumor volume vs vehicle, day 9 ([3]; day 9): *** (P < 0.001)
- Mann-Whitney analysis on tumor volume vs vehicle, day 11 ([3]; day 11): *** (P < 0.001)
- Mann-Whitney analysis on tumor volume vs vehicle, day 14 ([3]; day 14): *** (P < 0.001)
- Mann-Whitney analysis on tumor volume vs vehicle, day 16 ([3]; day 16): *** (P < 0.001)
- Best T/C% [3]: 11.00%
- Best T/C% ([3]; listed as docetaxel): 11.00%
- T/C % at day 16 [3]: 11.00%
- median TGD x 5 [3]: >28 days
- PR (partial regression), number of mice [3]: 2
- PR (partial regression), number of mice ([3]; listed as docetaxel): 2/9

B1: 3C23K anti-AMHRII monoclonal antibody (antibody, human IgG1, kappa, V domains shown)
VH: QVRLVQSGAEVKKPGASVKVSCKASGYTFTSYHIHWVRQAPGQRLEWMGWIYPGDDSTKYSQKFQGRVTITRDTSASTAYMELSSLRSEDTAVYYCTRGDRFAYWGQGTLVTVSS
VL: DIQMTQSPSTLSASVGDRVTITCRASSSVRYIAWYQQKPGKAPKLLTYPTSSLKSGVPSRFSGSGSGTEFTLTISSLQPDDFATYYCLQWSSYPWTFGGGTKVEIKR
notes: Humanized mAb; GM102 is described as a low fucose form; also called GM102; 3C23K-AF
- binding result [4]: binds

B2: GM102: humanized anti-AMHRII (AMHR2) monoclonal antibody, low fucose; VH SEQ ID NO 19, VL SEQ ID NO 36 (antibody, V domains shown)
VH: QVRLVQSGAEVKKPGASVKVSCKASGYTFTSYHIHWVRQAPGQRLEWMGWIYPGDDSTKYSQKFQGRVTITRDTSASTAYMELSSLRSEDTAVYYCTRGDRFAYWGQGTLVTVSS
VL: DIQMTQSPSTLSASVGDRVTITCRASSSVRYIAWYQQKPGKAPKLLTYPTSSLKSGVPSRFSGSGSGTEFTLTISSLQPDDFATYYCLQWSSYPWTFGGGTKVEIK
modifications: low fucose; Synthetic 3C23K/3C23; Synthetic 3C23K
- Kd [5]: 0.0553 nM
- mice found dead ([1]; 9 mice per group (groups 7, 8: 8)): Mouse #27 was found dead on day 27
- maximum mean body weight loss ([1]; SC131-bearing nude mice (cachectic tumor), day of maximum differs per group): 9.8%
- maximum individual body weight loss ([1]; SC131-bearing nude mice, day of maximum differs per group): 16.8%
- tolerability (in words) ([1]; mouse, in vivo, iv, 20 mg/kg): well tolerated
- tumor volume at Day 28 vs vehicle (in words) ([6]; Day 28, p<0.001): drastically reduction of the tumor volume
- anti-tumor activity (in words) ([6]; GM102 20 mg/kg i.p. twice weekly, NMRI-Foxn1nu mice): strong anti-tumor activity
- efficacy in combination with carboplatin and paclitaxel (in words) ([7]; Jacquet A., Cancer Res, 2012): synergistic
- antitumor efficacy (in words) ([7]; mouse, in vivo): display antitumor efficacy
- CR (complete regression), number of mice [3]: 0
- TFS (Tumor Free Survivor), number of mice [3]: 0
- tumor growth inhibition ([3]; GM102 alone, did not reach statistical significance): 25%
- antitumor efficacy compared with control group 1 (in words) [3]: did not demonstrate any antitumor efficacy
- TGDI (Tumor Growth Delay Index) [3]: 1.33
- TS (Tumor Stabilization), number of mice [3]: 0
- Best T/C% [3]: 74.68%
- T/C % at day 16 [3]: 74.68%
- median TGD x 5 [3]: 13.70 days
- PR (partial regression), number of mice [3]: 0
